Results on 30 molecules are retold here after US9604998B2, “Inhibitors of the renal outer medullary potassium channel” (MERCK SHARP & DOHME CORP., priority 2013, dated 2017).

Counter-ions that a name gives are not always drawn. Like-named read-outs stand apart in the source and are kept apart here.

One experiment has as its target hROMK (hKir1.1) (Homo sapiens (Human), UniProt P48048). The experiment can be described thus: Thallium Flux Assay (ROMK channel functional thallium flux, FLIPR-Tetra). In kind it is cell-based. The protocol: HEK293 cells stably expressing hROMK (hKir1.1) were grown at 37° C. in a 10% CO2 humidified incubator in complete growth media: Dulbecco's Modified Eagle Medium supplemented with non-essential amino acids, Penicillin/Streptomycin/Glutamine, G418 and FBS. At >80% confluency, aspirate the media from the flask and rinse with 10 mL Calcium/Magnesium-free PBS. […] To dislodge the cell, gently bang the side of the flask with your hand. Triturate the cells completely and then transfer the cells to 25 mL complete media. Centrifuge at 1,500 rpm for 6 min followed by resuspension in complete growth media and determine cell concentration.
Compound Buffer (per microplate): 20 mL Probenecid/Assay Buffer; 0.3 mM ouabain (10 mM ouabain in water can be stored in amber bottle/aluminum foil at room temperature); Test compound
Stimulant Buffer (prepared at 5× final concentration in 1× FluxOR™ Chloride-Free Buffer): 7.5 mM Thallium sulfate and […] (to give a final assay concentration of 3 mM Thallium/0.3 mM Potassium). Store at 4° C. when not in use. If kept sterile, this solution is good for months.
The ROMK channel functional thallium flux assay is performed in 384 wells, using the FLIPR-Tetra instrument. HEK-hKir1.1 cells are seeded in Poly-D-Lysine microplates and kept in a 37° C.-10% CO2 incubator overnight. On the day of the experiment, the growth media is replaced with the FluxOR™ reagent loading buffer and incubated, protected from light, at ambient temperature (23-25° C.) for 90 min. The loading buffer is replaced with assay buffer±test compound followed by 30 min incubation at ambient temperature, where the Thallium/Potassium stimulant is added to the microplate.
1. Seed HEK-hKir1.1 cells (50 μl at 20,000 cells/well) in 384-well PDL coated Microplates
2. Allow cells to adhere overnight in humidified 37° C./10% CO2 incubator
3. Completely remove cell growth media from microplate and replace with 25 μl loading buffer
4. Incubate Microplate at room temperature, protected form light, for 90 min
5. Remove loading buffer and replace with 25 μl 1× Assay Buffer±test compound.
6. Incubate microplate at room temperature, protected from light, for 30 min
7. […] Excitation=400 nm, Emission=460 & 580 nm. Collect data for ˜10 min.
The fluorescence intensity of wells containing 3 μM of a standard control ROMK inhibitor of the present invention is used to define the ROMK-sensitive component of thallium flux. Fluorescence in the presence of test compounds is normalized to control values to provide % fluorescence change.

For another experiment, the target named is Kir1.1 (ROMK1) (Homo sapiens (Human), UniProt P48048). The experiment can be described thus: Electrophysiology Assay (whole cell voltage clamp, IonWorks Quattro). The following applies: block during voltage step to 0 mV. In kind it is cell-based. How it is done:
Chinese hamster ovary cells stably expressing Kir1.1 channels were maintained in T-75 flasks in cell culture media in a humidified 10% CO2 incubator at 37° C. Prior to an experiment, Kir1.1 expression was induced by overnight incubation with 1 mM sodium butyrate. […] After centrifugation, the cell pellet was resuspended in approximately 4.0 mL of bath solution and placed in the IonWorks instrument. The intracellular solution consisted of (in mM): 80 K gluconate, 40 KCl, 20 KF, 3.2 MgCl2, 3 EGTA, 5 Hepes, pH 7.4. Electrical access to the cytoplasm was achieved by perforation in 0.13 mg/mL amphotericin B for 4 min. […] Voltage protocols and current recordings were performed using the IonWorks HT software/hardware system. Currents were sampled at 1 kHz. No correction for liquid junction potentials was used. The test pulse, consisting of a 100 ms step to 0 mV from a holding potential of −70 mV, followed by a 100 ms voltage ramp from −70 mV to +70 mV, was applied before and after a 6 min compound incubation period. Test compounds were prepared by diluting DMSO stock solutions into the bath solution at 3× the final concentration and placed in the instrument in 96-well polypropylene plates. Current amplitudes were measured using the IonWorks software.

Where [1] appears, read: HEK293 cells stably expressing hROMK (hKir1.1), read-out: Thallium Flux IC50.
Where [2] appears, read: Chinese hamster ovary cells stably expressing Kir1.1, read-out: Electrophysiology IC50.

Sequence of Kir1.1 (ROMK1) (P48048 whole entry, species assumed): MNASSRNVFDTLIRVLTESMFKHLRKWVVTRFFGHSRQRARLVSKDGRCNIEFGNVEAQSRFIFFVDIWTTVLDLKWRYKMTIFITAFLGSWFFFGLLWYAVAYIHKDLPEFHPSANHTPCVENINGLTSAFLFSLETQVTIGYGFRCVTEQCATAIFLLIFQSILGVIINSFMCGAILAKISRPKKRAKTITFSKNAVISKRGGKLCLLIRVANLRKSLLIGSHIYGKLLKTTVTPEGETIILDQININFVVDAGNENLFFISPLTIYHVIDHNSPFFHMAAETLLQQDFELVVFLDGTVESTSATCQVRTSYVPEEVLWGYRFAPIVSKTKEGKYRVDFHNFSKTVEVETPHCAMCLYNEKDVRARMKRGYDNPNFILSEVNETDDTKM
Sequence of hROMK (hKir1.1) (P48048 whole entry): as the sequence (P48048 whole entry, species assumed) above

Turning to `O=C1OCc2cc(CCN3CCN4C[C@H](c5ccc6c(c5)COC6=O)OC[C@@H]4C3)ccc21` [Example 63], the IC50 is 230 nM at hROMK (hKir1.1) (setting [1]) and 40 nM at Kir1.1 (ROMK1) (setting [2]).

For the molecule `Cc1c([C@@H]2CN3CCN(CCc4cc(F)c(C#N)c(F)c4)C[C@H]3CO2)ccc2c1COC2=O` [Example 98], the values for the IC50 at hROMK (hKir1.1) (setting [1]) and at Kir1.1 (ROMK1) (setting [2]) were 170 nM and 90 nM, respectively.

In the case of `Cc1c([C@@H]2CN3CCN(CC(O)c4cc(F)c(C#N)c(F)c4)C[C@H]3CO2)ccc2c1COC2=O` (stereo partly drawn) [Example 38, (3R,9aS)-8-[2-(4-cyano-3,5-difluorophenyl)-2-hydroxyethyl]-3-(4-methyl-1-oxo-1,3-dihydro-2-benzofuran-5-yl)octahydropyrazino[2,1-c][1,4]oxazin-5-ium chloride], the IC50 at hROMK (hKir1.1) (setting [1]) turned out to be 440 nM; at Kir1.1 (ROMK1) (setting [2]) it was 120 nM. Take `COc1cc(CCN2CCN3C[C@@H](c4ccc5c(c4C)COC5=O)OC[C@@H]3C2)cc(F)c1C#N` [Example 99]: the IC50 stood at 260 nM on hROMK (hKir1.1) (setting [1]) and 210 nM on Kir1.1 (ROMK1) (setting [2]). For `Cc1c([C@@H]2CN3CCN(CCc4ccc(-n5cnnn5)nc4)C[C@H]3CO2)ccc(F)c1C#N` [Example 92], in that order: 270 nM and 80 nM. Take `COc1cc(CCN2CCN3C[C@H](c4ccc5c(c4C)COC5=O)OC[C@H]3C2)c(F)cc1C#N` [Example 97]: the IC50 on hROMK (hKir1.1) (setting [1]) came out at 350 nM; at Kir1.1 (ROMK1) (setting [2]), 280 nM. For `Cc1c([C@@H]2CN3CCN(CC(O)c4ccc5c(c4C4CC4)COC5=O)C[C@H]3CO2)ccc2c1COC2=O` (single isomer, unassigned) [Example 50], in that order: 440 nM and 250 nM. Turning to `COc1c([C@@H]2CN3CCN(C[C@@H](O)c4ccc5c(c4C)COC5=O)C[C@H]3CO2)ccc(C#N)c1F` [Example 31, (3R,9aS)-3-(4-cyano-3-fluoro-2-methoxyphenyl)-8-[(2S)-2-hydroxy-2-(4-methyl-1-oxo-1,3-dihydro-2-benzofuran-5-yl)ethyl]octahydropyrazino[2,1-c][1,4]oxazin-8-ium chloride], the IC50 at hROMK (hKir1.1) (setting [1]) worked out at 650 nM.

Take `COc1c(CCN2CCN3C[C@H](c4ccc5c(c4C)COC5=O)OC[C@@H]3C2)ccc(C#N)c1F` [Example 96]: the figures for the IC50 at hROMK (hKir1.1) (setting [1]) and at Kir1.1 (ROMK1) (setting [2]) were 210 nM and 80 nM, respectively. As for `COc1cc(CCN2CCN3C[C@H](c4ccc5c(c4C)COC5=O)OC[C@H]3C2)ccc1C#N` [Example 61], the values for the IC50 at hROMK (hKir1.1) (setting [1]) and at Kir1.1 (ROMK1) (setting [2]) were 330 nM and 120 nM, respectively.

Consider `Cc1c(CCN2CCN3C[C@H](c4ccc5c(c4C)COC5=O)OC[C@H]3C2)ccc2c1COC2=O` [Example 67], for which, at Kir1.1 (ROMK1) (setting [2]), the IC50 worked out at 70 nM. As for `Cc1c([C@@H]2CN3CCN(CCc4ccc5c(c4)CC(C)OC5=O)C[C@H]3CO2)ccc2c1COC2=O` (stereo partly drawn) [Example 81], the concentration for half-maximal inhibition (IC50) was 90 nM on hROMK (hKir1.1) (setting [1]) and 120 nM at Kir1.1 (ROMK1) (setting [2]). For `COc1cc(CCN2CCN3C[C@@H](c4ccc5c(c4C)COC5=O)NC[C@@H]3C2)ccc1C#N` [Example 101, 2-Methoxy-4-(2-((7R,9aR)-7-(4-methyl-1-oxo-1,3-dihydroisobenzofuran-5-yl)hexahydro-1H-pyrazino[1,2-a]pyrazin-2(6H)-yl)ethyl)benzonitrile], in that order: 210 nM and 100 nM. With `Cc1cc2c(cc1C(O)CN1CCN3C[C@H](c4ccc(F)c(C#N)c4C)OC[C@@H]3C1)COC2=O` (single isomer, unassigned) [Example 26, trifluoroacetate], the IC50 is 250 nM on hROMK (hKir1.1) (Thallium Flux IC50, HEK293 cells stably expressing hROMK (hKir1.1)) and 220 nM at Kir1.1 (ROMK1) (Electrophysiology IC50, Chinese hamster ovary cells stably expressing Kir1.1). Regarding `Cc1nc(-n2cnnn2)ccc1C(O)CN1CCN2C[C@@H](c3ccc(F)c(C#N)c3C)OC[C@@H]2C1` (single isomer, unassigned) [Example 21], the IC50 on hROMK (hKir1.1) (setting [1]) stood at 260 nM. For `O=C1OCc2cc(CCN3CCN4C[C@@H](c5ccc6c(c5)COC6=O)OC[C@@H]4C3)ccc21` [Example 62], the IC50 on Kir1.1 (ROMK1) (setting [2]) was found to be 40 nM. Turning to `COc1cc(C(O)CN2CCN3C[C@@H](c4ccc5c(c4C)COC5=O)OC[C@@H]3C2)c(Cl)cc1C#N` (stereo partly drawn) [Example 9, (3R,9aS)-8-[2-(2-chloro-4-cyano-5-methoxyphenyl)-2-hydroxyethyl]-3-(4-methyl-1-oxo-1,3-dihydro-2-benzofuran-5-yl)octahydropyrazino[2,1-c][1,4]oxazin-5-ium chloride], at hROMK (hKir1.1) (setting [1]), the IC50 came out at 430 nM. Same read-out and setting: the same measure for `Cc1c([C@@H]2CN3CCN(C[C@H](O)c4ccc5c(c4C)COC5=O)C[C@H]3CN2)ccc(F)c1C#N` [Example 102, 6-fluoro-3-((3R,9aR)-8-((R)-2-hydroxy-2-(4-methyl-1-oxo-1,3-dihydroisobenzofuran-5-yl)ethyl)octahydro-1H-pyrazino[1,2-a]pyrazin-3-yl)-2-methylbenzonitrile]: 210 nM.

For the molecule `COc1cc(CCN2CCN3C[C@@H](c4ccc5c(c4)C[C@H](C)OC5=O)OC[C@@H]3C2)ccc1C#N` [Example 85], the IC50 at Kir1.1 (ROMK1) (setting [2]) turned out to be 90 nM. Same read-out and setting: the same measure for `Cc1c([C@@H]2CN3CCN(CCc4ccc5c(c4C)COC5=O)C[C@@H]3CO2)ccc(F)c1C#N` [Example 78]: 70 nM; for `COc1cc([C@H]2CN3CCN(CCc4ccc5c(c4C)COC5=O)C[C@H]3CO2)ccc1C#N` [Example 74]: 80 nM. On to `COc1cc(CCN2CCN3C[C@H](c4ccc5c(c4)COC5=O)OC[C@@H]3C2)ccc1C#N` [Example 59], for which the IC50 on Kir1.1 (ROMK1) (setting [2]) stood at 40 nM. On the same count and under the same terms, with `Cc1c([C@@H]2CN3CCN(CC4OCCc5c4ccc4c5COC4=O)C[C@H]3CO2)ccc2c1COC2=O` (stereo partly drawn) [Example 109, 6-{[(3R,9aS)-3-(4-methyl-1-oxo-1,3-dihydro-2-benzofuran-5-yl)hexahydropyrazino[2,1-c][1,4]oxazin-8(1H)-yl]methyl}-8,9-dihydro-1H-furo[3,4-f]isochromen-3(6H)-one] the figure was 50 nM; with `COc1cc(CCN2CCN3C[C@H](c4ccc5c(c4C)COC5=O)OC[C@@H]3C2)ccc1C#N` [Example 60], 180 nM; with `COc1cc(F)c(CCN2CCN3C[C@@H](c4ccc5c(c4C)COC5=O)OC[C@@H]3C2)cc1C#N` [Example 84], 50 nM. For the molecule `COc1c([C@@H]2CN3CCN(C[C@H](O)c4ccc5c(c4C)COC5=O)C[C@H]3CO2)ccc(C#N)c1F` [Example 30, (3R,9aS)-3-(4-cyano-3-fluoro-2-methoxyphenyl)-8-[(2R)-2-hydroxy-2-(4-methyl-1-oxo-1,3-dihydro-2-benzofuran-5-yl)ethyl]octahydropyrazino[2,1-c][1,4]oxazin-8-ium chloride], the IC50 on hROMK (hKir1.1) (setting [1]) stood at 230 nM. On to `COc1cc(CCN2CCN3C[C@@H](c4ccc5c(c4)COC5=O)OC[C@@H]3C2)ccc1C#N` [Example 58], for which the IC50 on Kir1.1 (ROMK1) (setting [2]) turned out to be 120 nM. Take `Cc1c([C@@H]2CN3CCN(CC(O)c4cccc(-n5cnnn5)c4)C[C@@H]3CO2)ccc(F)c1C#N` (single isomer, unassigned) [Example 23]: on hROMK (hKir1.1) (setting [1]), the IC50 is 320 nM.

In the case of `Cc1c(CCN2CCN3C[C@@H](c4ccc5c(c4C)COC5=O)OC[C@H]3C2)ccc2c1COC2=O` [Example 68], the IC50 at Kir1.1 (ROMK1) (setting [2]) was 140 nM.

In the case of `Cc1c([C@H]2CN3CCN(CCc4ccc5c(c4C)COC5=O)C[C@@H]3CO2)ccc(F)c1C#N` [Example 77], the IC50 at Kir1.1 (ROMK1) (setting [2]) was 70 nM.
